Reference: ChEMBL document CHEMBL5360661, “Structure-Activity Relationship Study of 1H-Pyrrole-3-carbonitrile Derivatives as STING Receptor Agonists” (ACS Med Chem Lett, 2023)
The source made the active and inactive calls. The rule behind the calls is not given here.

Assays:
[1] = species on record: Homo sapiens; experiment: (§1) Binding affinity to recombinant human STING R232H variant C-terminal domain (139 to 378 residues) expressed in Escherichia coli BL21 (DE3) cells assessed as thermal stabilization by measuring change in melting temperature at 50 uM incubated at 25 to 95 degreeC for 45 mins by SYPRO orange dye based fluorescence analysis
[2] = target: T1, Stimulator of interferon genes protein (Homo sapiens, UniProt Q86WV6); experiment: Agonist activity at STING in PMA-differentiated wildtype human THP1-Blue ISG cells harboring IRF-inducible SEAP reporter construct incubated for 24 hrs by QUANTI-Blue assay; format: cell-based
Target sequence in this assay (Q86WV6 whole entry): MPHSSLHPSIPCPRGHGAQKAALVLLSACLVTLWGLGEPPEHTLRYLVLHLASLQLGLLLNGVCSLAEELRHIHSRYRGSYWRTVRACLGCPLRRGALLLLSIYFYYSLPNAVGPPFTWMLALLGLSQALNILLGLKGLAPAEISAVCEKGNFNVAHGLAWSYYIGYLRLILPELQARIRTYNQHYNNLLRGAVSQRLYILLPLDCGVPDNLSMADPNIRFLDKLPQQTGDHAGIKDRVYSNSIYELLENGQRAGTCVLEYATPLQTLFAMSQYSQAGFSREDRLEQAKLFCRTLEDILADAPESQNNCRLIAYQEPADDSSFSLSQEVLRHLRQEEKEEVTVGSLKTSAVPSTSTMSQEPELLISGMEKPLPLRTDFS

[3] = target: T2, Stimulator of interferon genes protein (Mus musculus) (UniProt Q3TBT3); experiment: as §1, with “6-His tagged mouse” for “human”, “STING” for “STING R232H variant”, “(144” for “(139”
T2 sequence (whole entry): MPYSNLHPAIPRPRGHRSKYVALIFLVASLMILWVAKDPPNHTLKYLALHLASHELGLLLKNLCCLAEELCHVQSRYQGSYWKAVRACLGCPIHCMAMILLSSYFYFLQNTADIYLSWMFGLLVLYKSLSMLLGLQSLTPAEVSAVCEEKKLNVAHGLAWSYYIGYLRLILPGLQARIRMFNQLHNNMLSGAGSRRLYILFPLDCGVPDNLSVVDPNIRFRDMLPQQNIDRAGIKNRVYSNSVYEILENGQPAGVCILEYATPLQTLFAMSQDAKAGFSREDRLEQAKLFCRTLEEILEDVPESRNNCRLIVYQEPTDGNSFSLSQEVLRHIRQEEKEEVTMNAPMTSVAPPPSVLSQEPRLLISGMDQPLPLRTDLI

[4] = Competitive inhibition of 5-FAM labelled diABZI binding to recombinant human STING R293Q variant C-terminal domain (139 to 378 residues) expressed in Escherichia coli BL21 (DE3) cells incubated for 10 mins by fluorescence polarization assay
[5] = target: T1, Stimulator of interferon genes protein; experiment: Competitive inhibition of 5-FAM labelled diABZI binding to recombinant wildtype human STING R232 variant C-terminal domain (139 to 378 residues) expressed in Escherichia coli BL21 (DE3) cells incubated for 10 mins by fluorescence polarization assay
Target sequence in this assay (Q86WV6 whole entry, looked up, stated change not applied): as the sequence (Q86WV6 whole entry) above

[6] = Competitive inhibition of 5-FAM labelled diABZI binding to recombinant human STING G230A and R293Q variant C-terminal domain (139 to 378 residues) expressed in Escherichia coli BL21 (DE3) cells incubated for 10 mins by fluorescence polarization assay
[7] = tested on: Stimulator of interferon genes protein (Homo sapiens), Q86WV6 [UNDEFINED MUTATION]; experiment: as §1, with “recombinant wildtype” for “recombinant”, “R232” for “R232H”
[8] = species on record: Homo sapiens; experiment: as §1, with “R293Q” for “R232H”
[9] = species on record: Homo sapiens; experiment: as §1, with “G230A and R293Q” for “R232H”
[10] = Competitive inhibition of 5-FAM labelled diABZI binding to recombinant human STING R232H variant C-terminal domain (139 to 378 residues) expressed in Escherichia coli BL21 (DE3) cells incubated for 10 mins by fluorescence polarization assay
[11] = target: T3, Stimulator of interferon genes protein (Mus musculus, UniProt Q3TBT3); experiment: Competitive inhibition of 5-FAM labelled diABZI binding to recombinant 6-his tagged mouse STING C-terminal domain (144 to 378 residues) expressed in Escherichia coli BL21 (DE3) cells incubated for 10 mins by fluorescence polarization assay
T3 sequence (Q3TBT3 whole entry): T2 sequence (whole entry)

[12] = target: T1, Stimulator of interferon genes protein; experiment: Activation of cGAS-STING pathway in wildtype human THP1-Blue ISG cells assessed as induction of STING phosphorylation at Ser366 residue at 15 uM incubated upto 6 hrs by Western blot analysis; format: cell-based; details: filed as activator
Target sequence in this assay (Q86WV6 whole entry): as the sequence (Q86WV6 whole entry) above

[13] = target: T1, Stimulator of interferon genes protein; experiment: Activation of cGAS-STING pathway in human THP1-Dual KO-cGAS cells assessed as induction of TBK1 phosphorylation at Ser172 residue at 15 uM incubated for 1 hrs by Western blot analysis; format: cell-based; details: filed as activator
Target sequence in this assay (Q86WV6 whole entry): as the sequence (Q86WV6 whole entry) above

[14] = target: T1, Stimulator of interferon genes protein; experiment: Activation of cGAS-STING pathway in human THP-1 cells assessed as stimulation of IL6 gene expression at 15 uM by RT-qPCR analysis; format: cell-based; details: filed as activator, time <= 8.0 hrs
Target sequence in this assay (Q86WV6 whole entry): as the sequence (Q86WV6 whole entry) above

[15] = target: T1, Stimulator of interferon genes protein; experiment: Activation of cGAS-STING pathway in wildtype human THP1-Blue ISG cells assessed as induction of TBK1 phosphorylation at Ser172 residue at 15 uM incubated upto 6 hrs by Western blot analysis; format: cell-based; details: filed as activator
Target sequence in this assay (Q86WV6 whole entry): as the sequence (Q86WV6 whole entry) above

[16] = target: T1, Stimulator of interferon genes protein; experiment: Activation of cGAS-STING pathway in wildtype human THP1-Blue ISG cells assessed as induction of IRF3 phosphorylation at Ser396 residue at 15 uM incubated upto 6 hrs by Western blot analysis; format: cell-based; details: filed as activator
Target sequence in this assay (Q86WV6 whole entry): as the sequence (Q86WV6 whole entry) above

[17] = target: T1, Stimulator of interferon genes protein; experiment: Activation of cGAS-STING pathway in human THP1-Dual KO-STING cells assessed as induction of TBK1 phosphorylation at Ser172 residue at 15 uM incubated for 1 hrs by Western blot analysis; format: cell-based
[18] = target: T1, Stimulator of interferon genes protein; experiment: Activation of cGAS-STING pathway in human THP1-Dual KO-cGAS cells assessed as induction of STING phosphorylation at Ser366 residue at 15 uM incubated for 1 hrs by Western blot analysis; format: cell-based; details: filed as activator
[19] = target: T1, Stimulator of interferon genes protein; experiment: Activation of cGAS-STING pathway in human THP1-Dual KO-STING cells assessed as induction of STING phosphorylation at Ser366 residue at 15 uM incubated for 1 hrs by Western blot analysis; format: cell-based
[20] = target: T1, Stimulator of interferon genes protein; experiment: Activation of cGAS-STING pathway in human THP1-Dual KO-cGAS cells assessed as induction of IRF3 phosphorylation at Ser396 residue at 15 uM incubated for 1 hrs by Western blot analysis; format: cell-based; details: filed as activator
[21] = target: T1, Stimulator of interferon genes protein; experiment: Activation of cGAS-STING pathway in wildtype human THP1-Blue ISG cells assessed as induction of p65 phosphorylation at Ser536 residue at 15 uM incubated upto 6 hrs by Western blot analysis; format: cell-based; details: filed as activator
[22] = target: T1, Stimulator of interferon genes protein; experiment: Activation of cGAS-STING pathway in human THP1-Dual KO-cGAS cells assessed as induction of STAT3 phosphorylation at Tyr705 residue at 15 uM incubated for 1 hrs by Western blot analysis; format: cell-based; details: filed as activator
[23] = target: T1, Stimulator of interferon genes protein; experiment: Activation of cGAS-STING pathway in human THP1-Dual KO-cGAS cells assessed as induction of p65 phosphorylation at Ser536 residue at 15 uM incubated for 1 hrs by Western blot analysis; format: cell-based; details: filed as activator
[24] = target: T1, Stimulator of interferon genes protein; experiment: Activation of cGAS-STING pathway in human THP1-Dual KO-STING cells assessed as induction of p65 phosphorylation at Ser536 residue at 15 uM incubated for 1 hrs by Western blot analysis; format: cell-based
[25] = target: T1, Stimulator of interferon genes protein; experiment: Activation of cGAS-STING pathway in human THP-1 cells assessed as stimulation of IFNB1 gene expression at 15 uM by RT-qPCR analysis; format: cell-based; details: filed as activator, time <= 8.0 hrs
[26] = target: T1, Stimulator of interferon genes protein; experiment: Activation of cGAS-STING pathway in human THP1-Dual KO-STING cells assessed as induction of IRF3 phosphorylation at Ser396 residue at 15 uM incubated for 1 hrs by Western blot analysis; format: cell-based
[27] = target: T1, Stimulator of interferon genes protein; experiment: Activation of cGAS-STING pathway in human THP-1 cells assessed as stimulation of CXCL10 gene expression at 15 uM by RT-qPCR analysis; format: cell-based; details: filed as activator, time <= 8.0 hrs
[28] = target: T1, Stimulator of interferon genes protein; experiment: Activation of cGAS-STING pathway in wildtype human THP1-Blue ISG cells assessed as induction of STAT3 phosphorylation at Tyr705 residue at 15 uM incubated upto 6 hrs by Western blot analysis; format: cell-based; details: filed as activator
[29] = target: T1, Stimulator of interferon genes protein; experiment: Activation of cGAS-STING pathway in human THP1-Dual KO-STING cells assessed as induction of STAT3 phosphorylation at Tyr705 residue at 15 uM incubated for 1 hrs by Western blot analysis; format: cell-based

Stimulator of interferon genes protein (Homo sapiens), Q86WV6 [UNDEFINED MUTATION], sequence (Q86WV6 whole entry, looked up, stated change not applied): as the sequence (Q86WV6 whole entry) above

| Structure (SMILES) | EC50 [2] | ΔTm [3] | IC50 [4] | IC50 [6] | IC50 [10] | IC50 [11] | ΔTm [1] | ΔTm [8] | ΔTm [9] | other results |
| --- | --- | --- | --- | --- | --- | --- | --- | --- | --- | --- |
| C=Cc1cc(NC(=O)c2ccc(-n3ccc(C#N)c3)nn2)c(C(=O)O)cc1F | 19.8 µM | – | – | – | – | – | 4.5 °C | – | – | – |
| N#Cc1ccn(-c2ccc(C(=O)Nc3cc(Cl)c(Br)cc3C(=O)O)nn2)c1 | 5.11 µM | – | – | – | – | – | 6.5 °C | – | – | – |
| N#Cc1ccn(-c2ccc(C(=O)Nc3cc(F)c(F)cc3C(=O)O)nn2)c1 | – | – | – | – | – | – | 3.5 °C | – | – | – |
| C#Cc1cc(NC(=O)c2ccc(-n3ccc(C#N)c3)nn2)c(C(=O)O)cc1F | 1.19 µM | 7.5 °C | 3.74 µM | 0.91 µM | 3.55 µM | 4.72 µM | 8 °C | 7.5 °C | 13 °C | Activity [12]: Active; Activity [13]: Active; Activity [14]: Active; Activity [15]: Active; Activity [16]: Active; Activity [17]: inactive; Activity [18]: Active; IC50 [5]: 3.31 µM; Activity [19]: inactive; Activity [20]: Active; Activity [21]: Active; ΔTm [7]: 6 °C; Activity [22]: Active; Activity [23]: Active; Activity [24]: inactive; Activity [25]: Active; Activity [26]: inactive; Activity [27]: Active; Activity [28]: Active; Activity [29]: inactive |
| CC#Cc1cc(NC(=O)c2ccc(-n3ccc(C#N)c3)nn2)c(C(=O)O)cc1F | 35 µM | – | – | – | – | – | 0.5 °C | – | – | – |

Further lines, with some results ahead:

| EC50 [2] | ΔTm [3] | IC50 [4] | IC50 [6] | IC50 [10] | IC50 [11] | Structure (SMILES) | ΔTm [1] | ΔTm [8] | ΔTm [9] | other results |
| --- | --- | --- | --- | --- | --- | --- | --- | --- | --- | --- |
| – | 5.5 °C | 3.82 µM | 3.66 µM | 2.78 µM | 3.75 µM | CCCn1c(NC(=O)c2cc(C)nn2C)nc2cc(C(N)=O)cc(OC3COC3)c21 | 6 °C | 5.5 °C | 5 °C | IC50 [5]: 3.16 µM; ΔTm [7]: 4.5 °C |
| 34.9 µM | – | – | – | – | – | CCc1cc(C(=O)O)c(NC(=O)c2ccc(-n3ccc(C#N)c3)nn2)cc1F | 0.5 °C | – | – | – |
| – | 10 °C | 5.54 µM | 0.73 µM | 4.89 µM | 2.2 µM | O=C(Nc1cc(F)c(F)cc1C(=O)O)c1ccc(-n2ccnc2)nn1 | 8.5 °C | 7.5 °C | 14 °C | – |
| 2.99 µM | 6.5 °C | 2.56 µM | 0.76 µM | 2.77 µM | 4.58 µM | N#Cc1ccn(-c2ccc(C(=O)Nc3cc(Cl)c(Cl)cc3C(=O)O)nn2)c1 | 7.5 °C | 7.5 °C | 13.5 °C | IC50 [5]: 2.42 µM; ΔTm [7]: 6 °C |
| 29.5 µM | – | – | – | – | – | N#Cc1ccn(-c2ccc(C(=O)Nc3cc(C4CC4)c(F)cc3C(=O)O)nn2)c1 | 1 °C | – | – | – |
| 6.33 µM | – | – | – | – | – | N#Cc1ccn(-c2ccc(C(=O)Nc3cc(Br)c(Br)cc3C(=O)O)nn2)c1 | 6.5 °C | – | – | – |
